Measurements taken from article PMC11642236, “Valorization of Hom Thong Banana Peel (Musa sp., AAA Group) as an Anti-Melanogenic Agent Through Inhibition of Pigmentary Genes and Molecular Docking Study” (International Journal of Molecular Sciences, 2024).
≈ marks a conversion by molar mass, not a printed value.

Target: T1, mushroom tyrosinase
T1 construct: gene PPO3; PDB 2Y9X used only for docking
Test: L-dopachrome formation, absorbance at […] nm
Type: biochemical, Agaricus bisporus
Conditions: L-DOPA as substrate (diphenolase); 0.1 M phosphate buffer, room temperature, 30 min

OC[C@H]1O[C@@H](Oc2ccc(O)cc2)[C@H](O)[C@@H](O)[C@@H]1O [Arbutin, reference compound]
IC50 Values (mg/mL) / L-DOPA as the Substrate: 3.44 ± 0.04 mg/mL (≈ 12.6 mM)

Oc1cc(O)c2c(c1)O[C@H](c1ccc(O)c(O)c1)[C@@H](O)C2 [Catechin]
IC50 Values (mg/mL) / L-DOPA as the Substrate: 6.42 ± 0.45 mg/mL (≈ 22.1 mM)

COc1cc(/C=C/C(=O)O)ccc1O [Ferulic acid]
IC50 Values (mg/mL) / L-DOPA as the Substrate: 3.93 ± 0.09 mg/mL (≈ 20.2 mM)

O=C(/C=C/c1ccc(O)c(O)c1)O[C@H](Cc1ccc(O)c(O)c1)C(=O)O [Rosmarinic acid]
IC50 Values (mg/mL) / L-DOPA as the Substrate: 3.62 ± 0.08 mg/mL (≈ 10 mM)

O=C(O)/C=C/c1ccccc1O [o-Coumaric acid]
IC50 Values (mg/mL) / L-DOPA as the Substrate: 4.19 ± 0.15 mg/mL (≈ 25.5 mM)
